In US20070270403A1 (priority 2003, published 2007):

Key:
5-HT release in NAcc = test: In vivo microvoltammetry, 5-HT release in NAcc (risperidone studies); set-up: species or system Sprague-Dawley Rattus Norvegicus; settings: Subacute, cocaine 10 mg/kg i.p. on Day 1
Experimental: In vivo microvoltammetry was used to detect dopamine (DA) and serotonin (5-HT) release from Nucleus Accumbens (NAcc) of freely moving, male, Sprague Dawley laboratory rats, while animals' locomotor (forward ambulations) and stereotypic behavior (fine movements of sniffing and grooming) were monitored at the same time with infrared photobeams. Monoamine release mechanisms were determined by using a depolarization blocker, gamma-butyrolactone (γBL). Miniature carbon sensors, BRODERICK PROBE® Lauric Acid Microelectrodes, smaller than a human hair, were used in conjunction with a semidifferential electrochemical circuit, to detect release of each monoamine in separate signals and within seconds. […] The hypothesis for the present studies is derived from a growing body of evidence that cocaine-induced psychosis and schizophrenic psychosis share similar neurochemical and behavioral manifestations.
Animals were purchased from Charles River Laboratories, Kingston, N.Y. and were housed in our animal care facilities for two weeks before surgery was performed. The Animal Care Facility operates under the auspices of the CUNY, City College Institutional Animal Care and Use Committee (IACUC) in compliance with National Institute of Health (NIH) guidelines. The weight range for the animals, at the time of the studies, was 350-475 g. Animals were group housed before surgery, individually housed after surgery and fed Purina Rat Chow and water ad libitum. A twelve hr dark-light cycle was maintained both in the housing of the animals and throughout the experimental studies. […] A Ag/AgCl reference electrode was placed in contact with dura, 7 mm anteriorally and contralaterally to the indicator microelectrode. A stainless steel auxiliary microelectrode, was placed in contact with dura.
In vivo microvoltammetric studies on conscious Sprague-Dawley laboratory rats were begun nine to fifteen days after the aseptic surgical operations were performed. On each experimental day, animals were placed in a Plexiglas-copper faradaic chamber. The three-microelectrode assembly, enclosed within the animal's prosthetic acrylic cap, was connected to a CV37 detector by means of a mercury commutator (Br. Res. Instr., Princeton, N.J.), a flexible cable, and a mating connector (BJM Electronics, Staten Island, N.Y.). The CV37 detector was electrically connected to a Minigard surge suppresser (Jefferson Electric, Magnetek, N.Y.) which was then connected to an electrical ground in isolation. […] Each animal was used as its own control. In vivo microvoltammetric scans were recorded in sec and repeated every five min for a period of 2 hrs before each treatment and a period of two hrs after each treatment.
(§1) The first hr pre-drug, allowed exploratory behavior. Exploratory behavior is defined as open-field behavior of ambulations (forward locomotion) and stereotypy (fine movements of sniffing and grooming), wherein animals respond to the stimuli of a novel environment with a high frequency of behavioral counts. The second hr pre-drug allowed the animal to become habituated before treatment. […] In the acute studies, each drug was administered […]. For the subacute studies, twenty four hrs later, the animals were again placed in the faradaic behavioral chamber and no further drug was administered. Each animal was monitored for possible recovery, withdrawal or after-effects. of each treatment WHILE open-field behaviors of locomotions and stereotypy were monitored with computerized infrared photocell beams which surround the faradaic chamber.

[1] = Pharmacokinetics of cocaine and its metabolites (literature); settings: rat, in vivo, ip; i.p. cocaine, extrapolated
[2] = test system: Sprague-Dawley laboratory rats; test: Stereotypy (fine movements of sniffing and grooming) by infrared photobeams (risperidone studies); assay type: in vivo, Sprague-Dawley Rattus Norvegicus
Experimental: Behaviors were monitored with infrared photobeams which surrounded the faradaic chamber. Open-field behaviors of locomotion (ambulations) and stereotypy (fine movements of sniffing and grooming) were recorded in sec and repeated every five min for a period of 2 hrs before each treatment and a period of 2 hrs after each treatment. Open-field behaviors were monitored simultaneously with in vivo microvoltammetric recordings of monoamines.
as §1
The faradaic chamber was made of plexiglas and covered with copper wire to refract possible electrical artifacts (dimensions: 24 inch (width) by 18 inch (depth) by 23.5 inch (height)). A 16 by 16 array of infrared photobeams, held in place by an aluminum frame, was situated ¾ inch above the Plexiglas floor of the chamber to detect locomotor and stereotypic movements. Photobeams were sampled by a Pentium computer to define the x-y position of the animal within a 1.5 inch resolution every 100 msec. When an x-y position was calculated, it was used to define a particular behavioral parameter. This system is a modified version of an Activity Pattern Monitor (APM) (San Diego Instruments, San Diego, Calif.). Behavioral data is presented in terms of Frequency of Events.
Neurochemical and behavioral data, derived from the last thirty minutes of the habituation period, provided the baseline data. […] Where appropriate, data points in the time course were subjected to 95% Confidence Limits (C.L.).

COC(=O)[C@H]1[C@@H](OC(=O)c2ccccc2)C[C@@H]2CC[C@H]1N2C [Cocaine, cocaine]
Decrease in 5-HT release on Day 2 compared to drug effect on Day1 (5-HT release in NAcc): about 75%
half-life [1]: ~2 h
Stereotypy frequency, Day 2 (Subacute) ([2]; 24 hr after cocaine 10 mg/kg i.p. or risperidone 2 mg/kg s.c. + cocaine): 40 counts
Decrease in stereotypy frequency on Day 2 compared with drug treatment, Day1 ([2]; Subacute, cocaine 10 mg/kg i.p.): about 20 counts
Stereotypy frequency with drug treatment, Day1 ([2]; cocaine 10 mg/kg i.p. or risperidone 2 mg/kg s.c. + cocaine): 60 counts
